Experiments:
Format in all cases: in vivo
[1] = tested on: giant foxtail (Setaria faberii); experiment: Test B pre-/postemergence; parameters: key: 0 is no effect; 10 is complete control
Text: (§1) Seeds of bedstraw (Galium aparine), blackgrass (Alopecurus myosuroides), broadleaf signalgrass (Brachiaria decumbens), cocklebur (Xanthium strumarium), corn (Zea mays), crabgrass (Digitaria sanguinalis), giant foxtail (Setaria faberii), lambsquarters (Chenopodium album), momingglory (Ipomoea hederacea), pigweed (Amaranthus retroflexus), rape (Brassica napus), soybean (Glycine max), sugar beet (Beta vulgaris), velvetleaf (Abutilon theophrasti), wheat (Triticum aestivum), wild oat (Avena fatua) and purple nutsedge (Cyperus rotundus) tubers were planted and treated preemergence with test chemicals formulated in a non-phytotoxic solvent mixture which included a surfactant.
(§2) At the same time, these crop and weed species were also treated with postemergence applications of test chemicals formulated in the same manner. Plants ranged in height from 2 to 18 cm (1- to 4-leaf stage) for postemergence treatments. Plant species in the flood test consisted of rice (Oryza sativa), smallflower flatsedge (Cyperus difformis), duck salad (Heteranthera limosa) and bamyardgrass (Echinochloa crus-galli) grown to the 2-leaf stage for testing. Treated plants and controls were maintained in a greenhouse for twelve to sixteen days, after which all species were compared to controls and visually evaluated. Plant response ratings, summarized in Table B, are based on a scale of 0 to 10 where 0 is no effect and 10 is complete control. A dash (−) response means no test result.

[2] = tested on: bedstraw (Galium aparine); experiment: Test B pre-/postemergence; parameters: key: 0 is no effect; 10 is complete control; conditions: for Bedstraw plant response rating: Preemergence
Text: as §1, §2

rape (Brassica napus) = experiment: Test B pre-/postemergence; parameters: key: 0 is no effect; 10 is complete control
Text: as §1, §2

soybean (Glycine max) = experiment: Test B pre-/postemergence; parameters: key: 0 is no effect; 10 is complete control
Text: as §1, §2

[3] = tested on: blackgrass (Alopecurus myosuroides); experiment: Test B pre-/postemergence; parameters: key: 0 is no effect; 10 is complete control; conditions: for Blackgrass plant response rating: Preemergence
Text: as §1, §2

wild oat (Avena fatua) = experiment: Test B pre-/postemergence; parameters: key: 0 is no effect; 10 is complete control
Text: as §1, §2

[4] = tested on: sugar beet (Beta vulgaris); experiment: Test B pre-/postemergence; parameters: key: 0 is no effect; 10 is complete control
Text: as §1, §2

[5] = tested on: wheat (Triticum aestivum); experiment: Test B pre-/postemergence; parameters: key: 0 is no effect; 10 is complete control
Text: as §1, §2

[6] = tested on: momingglory (Ipomoea hederacea); experiment: Test B pre-/postemergence; parameters: key: 0 is no effect; 10 is complete control
Text: as §1, §2

[7] = tested on: pigweed (Amaranthus retroflexus); experiment: Test B pre-/postemergence; parameters: key: 0 is no effect; 10 is complete control
Text: as §1, §2

[8] = tested on: broadleaf signalgrass (Brachiaria decumbens); experiment: Test B pre-/postemergence; parameters: key: 0 is no effect; 10 is complete control; conditions: for B. signalgrass plant response rating: Preemergence
Text: as §1, §2

[9] = tested on: cocklebur (Xanthium strumarium); experiment: Test B pre-/postemergence; parameters: key: 0 is no effect; 10 is complete control; conditions: for Cocklebur plant response rating: Preemergence
Text: as §1, §2

corn (Zea mays) = experiment: Test B pre-/postemergence; parameters: key: 0 is no effect; 10 is complete control; conditions: for Corn plant response rating: Preemergence
Text: as §1, §2

[10] = tested on: crabgrass (Digitaria sanguinalis); experiment: Test B pre-/postemergence; parameters: key: 0 is no effect; 10 is complete control; conditions: for Crabgrass plant response rating: Preemergence
Text: as §1, §2

[11] = tested on: velvetleaf (Abutilon theophrasti); experiment: Test B pre-/postemergence; parameters: key: 0 is no effect; 10 is complete control
Text: as §1, §2

[12] = tested on: bamyardgrass (Echinochloa crus-galli); experiment: Test B flood test
Experimental: as §2

[13] = tested on: duck salad (Heteranthera limosa); experiment: Test B flood test
Experimental: as §2

[14] = tested on: smallflower flatsedge (Cyperus difformis); experiment: Test B flood test
Experimental: as §2

rice (Oryza sativa) = experiment: Test B flood test
Experimental: as §2

[15] = Rate 250 g/ha, Postemergence (so in the source)
[16] = Rate 62 g/ha, Postemergence (flood test)
[17] = Rate 125 g/ha, Postemergence, flood test
[18] = Rate 250 g/ha, Postemergence (flood test species)
[19] = Rate 125 g/ha, Postemergence section (flood test species)

## CCc1cnc(-n2ccc(C(F)(F)F)n2)nc1Cc1cccc(OC(F)(F)F)c1 [Compound 47]
[1]; Rate 62 g/ha, Postemergence
  Plant response rating, Giant foxtail: 4
[1]; Rate 62 g/ha, Preemergence
  Giant foxtail plant response rating: 9
[1]; Rate 125 g/ha, Postemergence
  Giant foxtail plant response rating: 4
[1]; Rate 125 g/ha, Preemergence
  Giant foxtail plant response rating: 10
[1]; Rate 250 g/ha, Postemergence
  Plant response rating, Giant foxtail: 7
[1]; [15]
  Plant response rating, Giant foxtail: 10
[2]; Rate 62 g/ha, Postemergence
  Plant response rating, Bedstraw: 9
[2]; Rate 62 g/ha
  Bedstraw plant response rating: 7
[2]; Rate 125 g/ha
  Bedstraw plant response rating: 8
[2]; [15]
  Plant response rating, Bedstraw: 8
Rape (Brassica napus); Rate 62 g/ha, Postemergence
  Plant response rating, Rape: 10
Rape (Brassica napus); Rate 62 g/ha, Preemergence
  Rape plant response rating: 7
Rape (Brassica napus); Rate 125 g/ha, Postemergence
  Rape plant response rating: 10
Rape (Brassica napus); Rate 125 g/ha, Preemergence
  Rape plant response rating: 9
Rape (Brassica napus); Rate 250 g/ha, Postemergence
  Plant response rating, Rape: 10
Rape (Brassica napus); [15]
  Plant response rating, Rape: 10
Soybean (Glycine max); Rate 62 g/ha, Postemergence
  Plant response rating, Soybean: 8
Soybean (Glycine max); Rate 62 g/ha, Preemergence
  Soybean plant response rating: 0
Soybean (Glycine max); Rate 125 g/ha, Postemergence
  Soybean plant response rating: 8
Soybean (Glycine max); Rate 125 g/ha, Preemergence
  Plant response rating, Soybean: 0
Soybean (Glycine max); Rate 250 g/ha, Postemergence
  Plant response rating, Soybean: 7
Soybean (Glycine max); [15]
  Plant response rating, Soybean: 2
[3]; Rate 62 g/ha, Postemergence
  Plant response rating, Blackgrass: 5
[3]; Rate 62 g/ha
  Blackgrass plant response rating: 3
[3]; Rate 125 g/ha, Postemergence
  Plant response rating, Blackgrass: 5
[3]; Rate 125 g/ha
  Blackgrass plant response rating: 8
[3]; Rate 250 g/ha, Postemergence
  Plant response rating, Blackgrass: 6
[3]; [15]
  Plant response rating, Blackgrass: 10
Wild oat (Avena fatua); Rate 62 g/ha, Postemergence
  Wild oats plant response rating: 6
Wild oat (Avena fatua); Rate 62 g/ha, Preemergence
  Wild oats plant response rating: 9
Wild oat (Avena fatua); Rate 125 g/ha, Postemergence
  Wild oats plant response rating: 8
Wild oat (Avena fatua); Rate 125 g/ha, Preemergence
  Plant response rating, Wild oats: 9
Wild oat (Avena fatua); Rate 250 g/ha, Postemergence
  Plant response rating, Wild oats: 9
Wild oat (Avena fatua); [15]
  Plant response rating, Wild oats: 10
[4]; Rate 62 g/ha, Postemergence
  Plant response rating, Sugarbeets: 9
[4]; Rate 62 g/ha, Preemergence
  Sugarbeets plant response rating: 7
[4]; Rate 125 g/ha, Postemergence
  Sugarbeets plant response rating: 9
[4]; Rate 125 g/ha, Preemergence
  Plant response rating, Sugarbeets: 7
[4]; Rate 250 g/ha, Postemergence
  Plant response rating, Sugarbeets: 9
[4]; [15]
  Plant response rating, Sugarbeets: 9
[5]; Rate 62 g/ha, Postemergence
  Wheat plant response rating: 5
[5]; Rate 62 g/ha, Preemergence
  Wheat plant response rating: 2
[5]; Rate 125 g/ha, Postemergence
  Wheat plant response rating: 5
[5]; Rate 125 g/ha, Preemergence
  Plant response rating, Wheat: 3
[5]; Rate 250 g/ha, Postemergence
  Plant response rating, Wheat: 6
[5]; [15]
  Plant response rating, Wheat: 5
[6]; Rate 62 g/ha, Postemergence
  Plant response rating, Morningglory: 6
[6]; Rate 62 g/ha, Preemergence
  Morningglory plant response rating: 1
[6]; Rate 125 g/ha, Postemergence
  Morningglory plant response rating: 6
[6]; Rate 125 g/ha, Preemergence
  Morningglory plant response rating: 6
[6]; Rate 250 g/ha, Postemergence
  Plant response rating, Morningglory: 8
[6]; [15]
  Plant response rating, Morningglory: 6
[7]; Rate 62 g/ha, Postemergence
  Plant response rating, Redroot pigweed: 9
[7]; Rate 62 g/ha, Preemergence
  Redroot pigweed plant response rating: 8
[7]; Rate 125 g/ha, Postemergence
  Redroot pigweed plant response rating: 9
[7]; Rate 125 g/ha, Preemergence
  Redroot pigweed plant response rating: 9
[7]; Rate 250 g/ha, Postemergence
  Plant response rating, Redroot pigweed: 9
[7]; [15]
  Plant response rating, Redroot pigweed: 10
[8]; Rate 62 g/ha, Postemergence
  Plant response rating, B. signalgrass: 4
[8]; Rate 62 g/ha
  B. signalgrass plant response rating: 5
[8]; Rate 125 g/ha, Postemergence
  Plant response rating, B. signalgrass: 5
[8]; Rate 125 g/ha
  B. signalgrass plant response rating: 6
[8]; Rate 250 g/ha, Postemergence
  Plant response rating, B. signalgrass: 8
[8]; Rate 250 g/ha, Postemergence as printed in head r139 (second section for compounds 26-50)
  Plant response rating, B. signalgrass: 9
[9]; Rate 62 g/ha, Postemergence
  Plant response rating, Cocklebur: 7
[9]; Rate 62 g/ha
  Cocklebur plant response rating: 1
[9]; Rate 125 g/ha, Postemergence
  Plant response rating, Cocklebur: 8
[9]; Rate 125 g/ha
  Cocklebur plant response rating: 2
[9]; Rate 250 g/ha, Postemergence
  Plant response rating, Cocklebur: 8
[9]; [15]
  Plant response rating, Cocklebur: 2
Corn (Zea mays); Rate 62 g/ha, Postemergence
  Plant response rating, Corn: 3
Corn (Zea mays); Rate 62 g/ha
  Corn plant response rating: 1
Corn (Zea mays); Rate 125 g/ha, Postemergence
  Plant response rating, Corn: 3
Corn (Zea mays); Rate 125 g/ha
  Corn plant response rating: 2
Corn (Zea mays); Rate 250 g/ha, Postemergence
  Plant response rating, Corn: 4
Corn (Zea mays); [15]
  Plant response rating, Corn: 3
[10]; Rate 62 g/ha, Postemergence
  Plant response rating, Crabgrass: 7
[10]; Rate 62 g/ha
  Crabgrass plant response rating: 8
[10]; Rate 125 g/ha, Postemergence
  Plant response rating, Crabgrass: 9
[10]; Rate 125 g/ha
  Crabgrass plant response rating: 10
[10]; Rate 250 g/ha, Postemergence
  Plant response rating, Crabgrass: 10
[10]; [15]
  Plant response rating, Crabgrass: 10
[11]; Rate 62 g/ha, Postemergence
  Plant response rating, Velvetleaf: 7
[11]; Rate 62 g/ha, Preemergence
  Velvetleaf plant response rating: 8
[11]; Rate 125 g/ha, Postemergence
  Velvetleaf plant response rating: 7
[11]; Rate 125 g/ha, Preemergence
  Plant response rating, Velvetleaf: 10
[11]; Rate 250 g/ha, Postemergence
  Plant response rating, Velvetleaf: 8
[11]; [15]
  Plant response rating, Velvetleaf: 10
[12]; [16]
  Plant response rating, Barnyardgrass: 2
[12]; [17]
  Plant response rating, Barnyardgrass: 3
[12]; [18]
  Plant response rating, Barnyardgrass: 6
[13]; [16]
  Plant response rating, Ducksalad: 3
[13]; [17]
  Plant response rating, Ducksalad: 3
[13]; [18]
  Plant response rating, Ducksalad: 7
[14]; [16]
  Plant response rating, S. Flatsedge: 7
[14]; [19]
  S. Flatsedge plant response rating: 7
[14]; [18]
  Plant response rating, S. Flatsedge: 9
Rice (Oryza sativa); [16]
  Plant response rating, Rice: 3
Rice (Oryza sativa); [19]
  Rice plant response rating: 5
Rice (Oryza sativa); [18]
  Plant response rating, Rice: 6

Source: patent US6525001B1, “Substituted pyrimidine and pyridine herbicides” (Mid-American Commercialization Corporation, priority 1997, dated 2003)
